In the experiment the target is T1, MD2 (myeloid differentiation protein 2) (Homo sapiens, UniProt Q9Y6Y9).
T1 construct: gene LY96; recombinant human MD2 (rhMD2)
T1 sequence (Q9Y6Y9 19-160): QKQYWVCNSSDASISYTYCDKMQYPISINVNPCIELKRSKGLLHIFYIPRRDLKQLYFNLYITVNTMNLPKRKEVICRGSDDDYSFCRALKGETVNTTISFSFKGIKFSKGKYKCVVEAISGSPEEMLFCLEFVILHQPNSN
The experiment in a line: SPR (ProteOn XPR36); supported by bis-ANS displacement and biotin-LPS competitive ELISA. It counts as binding. Background: An ELISA detects its analyte on a solid surface through an enzyme-linked reagent.

Usually Kd stands for the equilibrium constant for the complex coming apart. Lower therefore signals higher affinity. In the case of `COc1ccc(C(=O)/C=C/c2cc(OC)c(OC)c(OC)c2)cc1OC` [compound 20], the dissociation constant Kd worked out at 189 µM.

Values taken from paper PMC4846832, “Discovery of new MD2 inhibitor from chalcone derivatives with anti-inflammatory effects in LPS-induced acute lung injury” (Scientific Reports, 2016).
